Data published in ChEMBL document CHEMBL1121692, “Synthesis of fluorine-containing peptides. Analogues of angiotensin II containing hexafluorovaline” (J Med Chem, 1981).
Residues, ends and D or L forms follow the SMILES beside them.

Species on record: Rattus norvegicus
Test: Agonist activity relative to angiotensin II in uterine contraction was estimated in rat using rat oxytocic assay

Compound | Relative activity [%]
CC(C)[C@H](NC(=O)[C@H](CCCN=C(N)N)NC(=O)[C@@H](N)CC(=O)O)C(=O)N[C@@H](Cc1ccc(O)cc1)C(=O)N[C@H](C(=O)N[C@@H](Cc1c[nH]cn1)C(=O)N1CCC[C@H]1C(=O)N[C@@H](Cc1ccccc1)C(=O)O)C(C(F)(F)F)C(F)(F)F (HELM PEPTIDE1{D.R.V.Y.[O=C([C@@H](N[*:1])C(C(F)(F)F)C(F)(F)F)[*:2]].H.P.F}$$$$V2.0) | 133
CC(C)[C@H](NC(=O)[C@H](CCCN=C(N)N)NC(=O)[C@@H](N)CC(=O)O)C(=O)N[C@@H](Cc1ccc(O)cc1)C(=O)N[C@@H](C(=O)N[C@@H](Cc1c[nH]cn1)C(=O)N1CCC[C@H]1C(=O)N[C@@H](Cc1ccccc1)C(=O)O)C(C(F)(F)F)C(F)(F)F (HELM PEPTIDE1{D.R.V.Y.[O=C([C@H](N[*:1])C(C(F)(F)F)C(F)(F)F)[*:2]].H.P.F}$$$$V2.0) | <1
